Data from ChEMBL document CHEMBL1154528, “Discovery of a novel series of quinoxalines as inhibitors of c-Met kinase” (Bioorg Med Chem Lett, 2009).

Tests used:
[1] = biological target: Vascular endothelial growth factor receptor 2 (Homo sapiens) (UniProt P35968); assay: Inhibition of KDR at 10 uM; design: scale not given: the % may be the effect or the level left
[2] = Inhibition of Flt at 10 uM; design: scale not given: the % may be the effect or the level left

Sequence of Vascular endothelial growth factor receptor 2 (Homo sapiens) (P35968 whole entry): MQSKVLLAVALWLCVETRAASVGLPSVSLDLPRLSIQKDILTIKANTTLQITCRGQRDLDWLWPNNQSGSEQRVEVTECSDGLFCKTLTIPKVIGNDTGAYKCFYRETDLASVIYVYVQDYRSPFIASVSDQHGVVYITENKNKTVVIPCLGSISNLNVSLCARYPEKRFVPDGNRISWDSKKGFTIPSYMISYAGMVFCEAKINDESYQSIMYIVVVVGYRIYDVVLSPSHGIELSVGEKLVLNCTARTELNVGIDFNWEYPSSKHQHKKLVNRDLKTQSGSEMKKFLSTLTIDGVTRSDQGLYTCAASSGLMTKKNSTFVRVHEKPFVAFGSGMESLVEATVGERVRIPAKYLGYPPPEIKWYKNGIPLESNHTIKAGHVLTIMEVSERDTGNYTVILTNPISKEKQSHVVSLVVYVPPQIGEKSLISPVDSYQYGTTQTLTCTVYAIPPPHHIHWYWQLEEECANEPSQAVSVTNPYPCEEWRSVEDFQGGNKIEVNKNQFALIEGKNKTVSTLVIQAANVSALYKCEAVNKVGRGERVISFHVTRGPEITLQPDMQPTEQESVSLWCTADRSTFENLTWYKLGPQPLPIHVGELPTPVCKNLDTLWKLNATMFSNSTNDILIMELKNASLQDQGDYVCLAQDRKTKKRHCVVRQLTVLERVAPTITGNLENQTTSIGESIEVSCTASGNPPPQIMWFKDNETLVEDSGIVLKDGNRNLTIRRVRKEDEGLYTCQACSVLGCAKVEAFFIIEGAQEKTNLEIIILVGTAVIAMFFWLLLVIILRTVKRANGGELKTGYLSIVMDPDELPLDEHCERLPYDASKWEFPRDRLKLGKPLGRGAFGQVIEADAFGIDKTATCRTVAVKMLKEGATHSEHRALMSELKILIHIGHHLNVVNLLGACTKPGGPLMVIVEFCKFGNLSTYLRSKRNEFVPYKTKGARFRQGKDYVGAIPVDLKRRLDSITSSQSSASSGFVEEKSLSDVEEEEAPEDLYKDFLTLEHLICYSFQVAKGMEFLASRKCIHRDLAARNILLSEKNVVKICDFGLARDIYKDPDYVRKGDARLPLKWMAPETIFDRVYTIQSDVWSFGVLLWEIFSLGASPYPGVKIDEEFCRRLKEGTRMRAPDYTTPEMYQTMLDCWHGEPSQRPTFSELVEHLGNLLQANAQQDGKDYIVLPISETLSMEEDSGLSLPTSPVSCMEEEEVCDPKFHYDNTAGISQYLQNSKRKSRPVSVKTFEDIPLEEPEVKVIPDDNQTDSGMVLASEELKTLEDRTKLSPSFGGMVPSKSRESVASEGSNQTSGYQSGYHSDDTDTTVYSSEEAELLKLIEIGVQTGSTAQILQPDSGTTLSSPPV

Activity [1]: < 30%
Activity [2]: < 30%
Compound: CN1CCN(c2cnc3cc(C(F)(F)F)cc(-c4ccccc4)c3n2)CC1
